Experimental data: PubChem BioAssay (NCI)
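Results reflect a 48-hour exposure of cells in 96-well plates to compound at five concentrations. The concentration for full growth arrest is given as TGI.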 *1 amine or outer side, *2 acyl side, *3 side chain or, on linkers, in order; H or OH if unused. Where a SMILES comes first, the peptide text is derived from it. [ ]: non-standard residue; d: D form. The star is where a group is joined. X31 = CC(=O)N(C)SCC(N[*:1])C(=O)[*:2]; X47 = CC(=O)N(C)SCC(N*)/C(O)=N\O; Cbz = O=C(OCc1ccccc1)*; Bn = c1ccc(C*)cc1; For = O=C*

Legend:
Experiment in all cases: growth of human tumour cells (NCI), 48 h
786-0 renal = system: 786-0 renal
OVCAR-8 ovarian = system: OVCAR-8 ovarian
RXF 393 renal = system: RXF 393 renal
NCI-H522 lung = system: NCI-H522 lung
MDA-MB-231 breast = system: MDA-MB-231 breast
SK-MEL-2 melanoma = system: SK-MEL-2 melanoma
IGROV1 ovarian = system: IGROV1 ovarian
U251 CNS = system: U251 CNS
SK-OV-3 ovarian = system: SK-OV-3 ovarian
SNB-19 CNS = system: SNB-19 CNS
MDA-MB-435 = system: MDA-MB-435
SK-MEL-5 melanoma = system: SK-MEL-5 melanoma
SK-MEL-28 melanoma = system: SK-MEL-28 melanoma
MDA-N = system: MDA-N
K-562 leukemia = system: K-562 leukemia
SF-268 CNS = system: SF-268 CNS
NCI-H226 lung = system: NCI-H226 lung
MOLT-4 leukemia = system: MOLT-4 leukemia
NCI-H23 lung = system: NCI-H23 lung
SN12C renal = system: SN12C renal

Measured: TGI

CC(=O)N(C)SCC(NC(=O)C(Cc1ccccc1)NC(=O)OCc1ccccc1)C(=O)NC(Cc1ccccc1)C(=O)NC(Cc1cn(C=O)c2ccccc12)C(=O)NC(CCCCNC(=O)OCc1ccccc1)C(=O)NC(C(=O)NC(CSN(C)C(C)=O)/C(O)=N\O)C(C)OCc1ccccc1 (stereo not given) (Cbz-F[X31]FW(For)K(Cbz)T(Bn)-X47; configuration not given here)
> 100 µM: 786-0 renal | OVCAR-8 ovarian | RXF 393 renal | NCI-H522 lung | MDA-MB-231 breast | SK-MEL-2 melanoma | IGROV1 ovarian | U251 CNS | SK-OV-3 ovarian | SNB-19 CNS | MDA-MB-435 | SK-MEL-5 melanoma | SK-MEL-28 melanoma | MDA-N | K-562 leukemia | SF-268 CNS | NCI-H226 lung | MOLT-4 leukemia | NCI-H23 lung | SN12C renal

CCOC(=O)CN1C(=O)c2c(c(C)n(-c3ccccc3)c2C)C1=O
> 100 µM: 786-0 renal | OVCAR-8 ovarian | RXF 393 renal | NCI-H522 lung | MDA-MB-231 breast | SK-MEL-2 melanoma | IGROV1 ovarian | U251 CNS | SK-OV-3 ovarian | SNB-19 CNS | MDA-MB-435 | SK-MEL-5 melanoma | SK-MEL-28 melanoma | MDA-N | K-562 leukemia | SF-268 CNS | NCI-H226 lung | MOLT-4 leukemia | NCI-H23 lung | SN12C renal
